The first assay concerns MMP1 expression by activated synovial fibroblasts (RASFs). The assay can be described thus: MMP assay: MMP1 expression by RASFs triggered with TNF-α (MMP1 ELISA). The assay is classed as cell-based. The settings on record: Fibroblast, 48 h, TNF-α trigger 10 ng/mL, semi-quantitative score, read-out: REDUCTION MMP1/TNFa. The method, boiled down:
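Primary RA synovial fibroblasts (passage 10–12, 3000 cells/well) were preincubated 90 min with compound in M199/1% FBS (0.2% DMSO), then triggered with TNF-α at 10 ng/mL final or 12.5% complex trigger for 48 h. MMP1 in supernatant was measured by sandwich chemiluminescent ELISA; untriggered and vehicle-triggered wells served as min/max controls.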
For `O=C(NCc1cccnc1)c1ccc(Nc2ccc(-c3cn[nH]c3)n3ncnc23)cc1` [Example 37, 4-{[5-(1H-pyrazol-4-yl)[1,2,4]triazolo[1,5-a]pyridin-8-yl]amino}-N-(pyridin-3-ylmethyl)benzamide], the IC50 was less than 500 nM.
The same measure, in the same setting: in the case of `CN1CCN(c2ccc(Nc3ccc(-c4cc[nH]c(=O)c4)n4ncnc34)cc2)CC1` [Example 40, 4-(8-{[4-(4-methylpiperazin-1-yl)phenyl]amino}[1,2,4]triazolo[1,5-a]pyridin-5-yl)pyridin-2(1H)-one] it was 1000 to 5000 nM.
Turning to `NC(=O)c1ccc(-c2ccc(Nc3ccc(N4CCOCC4)cc3)c3ncnn23)cc1` [Example 1, 4-[8-(4-Morpholin-4-yl-phenylamino)-[1,2,4]triazolo[1,5-a]pyridin-5-yl]-benzamide], the IC50 fell in the range of 501 to 1000 nM.
Still for that read-out and setting: in the case of `CN1CCN(c2ccc(Nc3ccc(-c4cn[nH]c4)n4ncnc34)cc2)CC1` [Example 2, [4-(4-Methyl-piperazin-1-yl)-phenyl]-[5-(1H-pyrazol-4-yl)-[1,2,4]triazolo[1,5-a]pyridin-8-yl]-amine] it was 501 to 1000 nM.
Regarding `O=C(NCc1cccnc1)c1ccc(Nc2ccc(-c3cc[nH]c(=O)c3)n3ncnc23)cc1` [Example 41, 4-{[5-(2-oxo-1,2-dihydropyridin-4-yl)[1,2,4]triazolo[1,5-a]pyridin-8-yl]amino}-N-(pyridin-3-ylmethyl)benzamide], the IC50 lay in the range of 1000 to 5000 nM.
Still for that read-out and setting: in the case of `CN1CCN(c2ccc(Nc3ccc(-c4ccc(C(N)=O)c(F)c4)n4ncnc34)cc2)CC1` [Example 42, 2-fluoro-4-(8-{[4-(4-methylpiperazin-1-yl)phenyl]amino}[1,2,4]triazolo[1,5-a]pyridin-5-yl)benzamide] it was 501 to 1000 nM.
On the same count and under the same terms, in the case of `c1nc2c(Nc3ccc(N4CCOCC4)cc3)ccc(-c3cn[nH]c3)n2n1` [Example 7, (4-Morpholin-4-yl-phenyl)-[5-(1H-pyrazol-4-yl)-[1,2,4]triazolo[1,5-a]pyridin-8-yl]-amine] it was 501 to 1000 nM.

The assay is the same for the next values; noted with them: TNF-α trigger 10 ng/mL, 48 hrs, semi-quantitative score, read-out: REDUCTION MMP1/TNFa.
On to `CN1CCN(c2ccc(Nc3ccc(-c4cc[nH]c(=O)c4)n4ncnc34)cc2)CC1` [Example 4, 4-{8-[4-(4-Methyl-piperazin-1-yl)-phenylamino]-[1,2,4]triazolo[1,5-a]pyridin-5-yl}-1H-pyridin-2-one], for which the IC50 fell in the range of 501 to 1000 nM.
Turning to `CN1CCN(c2ccc(Nc3ccc(-c4cn[nH]c4)n4ncnc34)cc2)CC1` [Example 36, N-[4-(4-methylpiperazin-1-yl)phenyl]-5-(1H-pyrazol-4-yl)[1,2,4]triazolo[1,5-a]pyridin-8-amine], the IC50 was 1000 to 5000 nM.
Same read-out and setting: in the case of `O=C(NCc1cccnc1)c1ccc(Nc2ccc(-c3cn[nH]c3)n3ncnc23)cc1` [Example 3, 4-[5-(1H-Pyrazol-4-yl)-[1,2,4]triazolo[1,5-a]pyridin-8-ylamino]-N-pyridin-3-ylmethyl-benzamide] it was 501 to 1000 nM; in that of `Cc1[nH]ncc1-c1ccc(Nc2ccc(N3CCOCC3)cc2)c2ncnn12` [Example 8, [5-(5-Methyl-1H-pyrazol-4-yl)-[1,2,4]triazolo[1,5-a]pyridin-8-yl]-(4-morpholin-4-yl-phenyl)-amine], 1000 to 5000 nM.
Same read-out and setting: in the case of `O=C(NCc1cccnc1)c1ccc(Nc2ccc(-c3cc[nH]c(=O)c3)n3ncnc23)cc1` [Example 5, 4-[5-(2-oxo-1,2-dihydro-pyridin-4-yl)-[1,2,4]triazolo[1,5-a]pyridin-8-ylamino]-N-pyridin-3-ylmethyl-benzamide] it was 501 to 1000 nM; in that of `Cc1[nH]ncc1-c1ccc(Nc2ccc(N3CCOCC3)cc2)c2ncnn12` [Example 39, 5-(5-methyl-1H-pyrazol-4-yl)-N-(4-morpholin-4-ylphenyl)[1,2,4]triazolo[1,5-a]pyridin-8-amine], 5000 to 10000 nM.
